Here are results for three molecules from US12643954B2, “Anti-CD36 antibodies and their use to treat cancer” (ONA Therapeutics, S.L., priority 2020, dated 2026).

For test [1], the system named is FaDu cells. As to the kind of experiment: FaDu orthotopic mouse model of oral cancer metastasis. The class given is in vivo. The note with it: single agent. The procedure: (§1) NOD scid gamma (NSG) (NOD.Cg-Prkdc^scidII2rg^tm1Wj1/SzJ) mice were purchased from Charles River and crossed in-house. All mice were housed under a regimen of 12h light/12h dark cycles and SPF conditions, and all procedures were evaluated and approved by the CEEA (Ethical Committee for Animal Experimentation) from the Government of Catalunya. SCC intra-tongue injection was performed as previously described (Oskarsson et al., 2014; Nieman et al., 2011). Briefly, mice were anesthetized by intraperitoneal injection with a mixture of 50 mg per kg of ketamine and 0.5 mg per kg of medetomidin, and SCC cells resuspended in 30 μl PBS were injected into each mouse tongue with a BD ultra-fine 6 mm needle. Mice were monitored for the luciferase bioluminescent signal immediately after injection (TO) and once weekly thereafter with a Xenogen IVIS Imaging System-100 (Caliper Life Sciences). Briefly, animals were injected by retro-orbital injection with 50 μl of D-luciferin (Promega) diluted in 1×PBS at 5 mg ml^−1. Continuous administration of isofluorane gas was provided to ensure anesthetizing animals during imaging. Data was quantified with the Living Image software version 4.4 (Caliper Life Sciences). Quantifications were calculated with unsaturated pixels. Color scale minimum and maximum values are shown in pictures.
Studies on the combination of the effects of the ONA-0-v1 anti-CD36 antibody, both with and without cisplatin, were performed in NSG mice (immuno-deficient). The studies included both male and female mice. All mice were inoculated with commercially available FaDu (ATCC) cancer cells, transduced with a retroviral vector expressing luciferase and the green fluorescent protein (Luc-GFP). FaDu cells were derived from a squamous cell carcinoma (i.e., from an oral cancer). Prior to inoculation, the FaDu cells were cultured in a humidified incubator at 37° C. with 5% CO2, and were grown in EMEM (LONZA) supplemented with 5 μg ml^−1 penicillin/streptomycin and 10% FBS (GIBCO).
For each mouse, 100,000 FaDu cells were inoculated via orthotopic injection.
Treatment of the inoculated mice began nine days after inoculation with the cancer cells. Inoculated mice were divided into four distinct treatment groups.
Antibody treatments were administered via intraperitoneal (i.p.) injection daily at a dose of 1 mg/kg. Cisplatin was administered twice weekly at a dose of 2 mg/kg (Groups 2 and 4). […] During the course of treatment, mice were observed once weekly using an in vivo imaging system (IVIS). Further, mouse body weight was measured twice weekly to update appropriate dosage amounts. At the end of the treatment period, the mice were sacrificed, and organs and tissues were collected for performance of immunohistochemistry analysis.

For test [2], the system named is Detroit 562 cells. The experiment in a line: Detroit 562 orthotopic mouse model of oral cancer metastasis. The class given is in vivo. The note with it: single agent; antibody 1 mg/kg i.p. daily, cisplatin 2 mg/kg twice weekly. The procedure:
as §1, with “Continuous administration of isofluorane gas was provided to ensure anesthetizing animals during imaging.” left out, “Color scale minimum and maximum values are shown in pictures.” left out
Antibody treatments were administered via intraperitoneal (i.p.) injection daily at a dose of 1 mg/kg. […] Further, mouse body weight was measured twice weekly to update appropriate dosage amounts. […]

In test [3] the target is T1, cells overexpressing human CD36 (Homo sapiens, UniProt P16671).
T1 construct: expressed in transfected cells
T1 sequence (P16671 whole entry): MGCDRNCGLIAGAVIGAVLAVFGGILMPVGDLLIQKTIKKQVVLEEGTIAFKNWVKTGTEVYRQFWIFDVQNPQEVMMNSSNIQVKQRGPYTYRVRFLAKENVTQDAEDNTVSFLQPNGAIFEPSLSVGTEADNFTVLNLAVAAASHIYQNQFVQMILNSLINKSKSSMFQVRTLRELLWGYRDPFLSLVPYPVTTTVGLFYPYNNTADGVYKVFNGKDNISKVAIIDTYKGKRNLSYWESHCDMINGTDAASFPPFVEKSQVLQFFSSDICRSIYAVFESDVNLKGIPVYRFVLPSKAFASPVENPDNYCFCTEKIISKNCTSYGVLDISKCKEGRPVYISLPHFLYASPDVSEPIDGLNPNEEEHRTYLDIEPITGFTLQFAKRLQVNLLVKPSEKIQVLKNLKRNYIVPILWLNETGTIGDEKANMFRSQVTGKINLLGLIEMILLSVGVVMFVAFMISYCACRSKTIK
The experiment in a line: FACS binding to cells overexpressing human CD36. The conditions noted are these: serial dilution up to 100 nM. Here is the method: For FACS analysis, cells were trypsinized, collected in a 15 mL tube and diluted in washing buffer (2% FBS in PBS). Cells were then centrifuged at 1500 rpm for 5 min at 4° C., supernatant was discarded, and cells were resuspended in fresh washing buffer. Anti-CD36 antibodies were either omitted (control wash buffer treatment) or serially diluted in washing buffer (dilution range up to 100 nM), and then added to the cells. Incubation was performed on ice for 1 hour. Cells were then centrifuged at 1500 rpm for 5 min at 4° C., supernatant was discarded, and cells were resuspended in fresh washing buffer. Finally, cells were incubated with a […] (BV421 Rat Anti-Mouse IgA, Becton Dickinson, reference 743293) diluted 1:100 in washing buffer, washed and analysed by FACS.
Background: A flow cytometer gives signals particle by particle.

Test [4] has as its target CD36 (Homo sapiens, UniProt P16671). The experiment in a line: ELISA binding to plate-coated human CD36. Also noted: purchased Sino Biological 10752-H08H. The note with it: recombinant human CD36 coated plates. Here is the method:
(§2) To perform ELISA assays, 96-well ELISA plates were coated over night with human CD36 (Sino Biological, reference 10752-H08H) or mouse CD36 (Sino Biological, reference 50422-M08H) recombinant proteins at a concentration of 0.25 mg/ml. After two washes with PBS, plates were blocked with 4% skimmed milk in PBS for 1 hour at 37° C. Blocking solution was discarded and plates were washed five times with 200 μl/well PBS-Tween20 (0.5%). Primary antibodies were either omitted (control blocking solution treatment) or mixed in blocking solution at several dilutions ranging from 0.01 nM to 0.5 μM. The primary antibody solutions were added to the wells and incubated over night at 4° C. After 5 washes with 200 ul/well of PBS-Tween20 (0.5%), plates were incubated for 1 hour at room temperature with a goat anti-mouse HRP-conjugated antibody (Abeam, reference ab97235) diluted 1:2000 in blocking solution. Plates were then washed 5 times with 200 μl/well of PBS-Tween20 (0.5%), incubated with 100 μl/well TMB and detected after 10 minutes, 30 minutes, or 60 minutes with a spectrophotometer at a wave length of 630 nm.
Background: ELISA stands for enzyme-linked immunosorbent assay.

The target in test [5] is T2, mouse CD36 (Mus musculus, UniProt Q08857).
T2 construct: purchased Sino Biological 50422-M08H
T2 sequence (Q08857 30-439 limits assumed): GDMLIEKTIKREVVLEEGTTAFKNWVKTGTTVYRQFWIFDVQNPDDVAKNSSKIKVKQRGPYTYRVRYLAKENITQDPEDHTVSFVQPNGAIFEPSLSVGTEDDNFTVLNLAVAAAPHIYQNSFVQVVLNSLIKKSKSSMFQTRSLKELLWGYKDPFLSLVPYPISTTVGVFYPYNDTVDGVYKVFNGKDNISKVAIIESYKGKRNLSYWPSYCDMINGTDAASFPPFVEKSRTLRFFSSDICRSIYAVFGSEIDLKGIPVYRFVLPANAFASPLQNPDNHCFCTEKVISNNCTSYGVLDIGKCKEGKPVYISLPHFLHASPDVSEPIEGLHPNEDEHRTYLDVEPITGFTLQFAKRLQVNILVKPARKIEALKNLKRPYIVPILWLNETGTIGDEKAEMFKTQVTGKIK
The experiment in a line: ELISA binding to plate-coated mouse CD36. The conditions noted are these: recombinant mouse CD36 coated plates. The procedure: as §2

Sequence of CD36 (P16671 30-439 limits assumed): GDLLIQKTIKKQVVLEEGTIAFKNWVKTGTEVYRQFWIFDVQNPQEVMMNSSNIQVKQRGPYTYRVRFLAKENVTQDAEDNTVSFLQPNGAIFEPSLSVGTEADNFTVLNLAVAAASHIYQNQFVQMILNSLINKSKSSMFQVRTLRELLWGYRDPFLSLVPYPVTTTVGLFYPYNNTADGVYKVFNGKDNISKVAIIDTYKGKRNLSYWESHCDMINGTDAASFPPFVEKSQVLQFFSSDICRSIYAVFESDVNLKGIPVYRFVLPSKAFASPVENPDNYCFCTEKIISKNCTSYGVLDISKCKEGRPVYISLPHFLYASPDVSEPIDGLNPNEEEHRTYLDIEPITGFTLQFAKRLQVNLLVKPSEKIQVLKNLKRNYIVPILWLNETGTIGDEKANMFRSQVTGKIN

As to `N.N.[Cl][Pt][Cl]` [cisplatin, reference compound], the “mice in which metastasis into lymph nodes was prevented” value in test [1] (eight tested mice per group) was “one of the eight”. In test [1] (antibody 1 mg/kg i.p. daily, cisplatin 2 mg/kg twice weekly), the “effect on primary tumor (IVIS imaging and H&E staining)” value is “inhibited tumor growth”. In addition, the “size of lung metastases” value in test [2] is recorded as “did reduce the size”.

B1: 1G06: chimeric ONA-0-v1 IgG1 antibody; heavy chain SEQ ID NO: 64, light chain SEQ ID NO: 23 (antibody)
heavy: QVQLKQSGADLVRPGASVKLSCKASGYTFTDYYINWVKQRPGQGLEWIARIYPGSGNTYYNEKFKGKATLTAEKSSSTAYMQLSSLTSEDSAVYFCARGIGGGFGMDYWGQGTSVTVSSASTKGPSVFPLAPSSKSTSGGTAALGCLVKDYFPEPVTVSWNSGALTSGVHTFPAVLQSSGLYSLSSVVTVPSSSLGTQTYICNVNHKPSNTKVDKKVEPKSCDKTHTCPPCPAPESTRGPSVFLFPPKPKDTLMISRTPEVTCVVVDVSHEDPEVKFNWYVDGVEVHNAKTKPREEQYNSTYRVVSVLTVLHQDWLNGKEYKCKVSNKALPAPIEKTISKAKGQPREPQVYTLPPSRDELTKNQVSLTCLVKGFYPSDIAVEWESNGQPENNYKTTPPVLDSDGSFFLYSKLTVDKSRWQQGNVFSCSVMHEALHNHYTQKSLSLSPGK
light: SIVMTQTPKFLLVSAGDRITITCKASQSVSDDVAWYQQKPGQSPKLLIYYASNRYTGVPDRFTGSGYGTDFTFTISTVQAEDLAVYFCQQDYSSPLTFGAGTKLEIKRTVAAPSVFIFPPSDEQLKSGTASVVCLLNNFYPREAKVQWKVDNALQSGNSQESVTEQDSKDSTYSLSSTLTLSKADYEKHKVYACEVTHQGLSSPVTKSFNRGEC
For B1, in test [3], the “binding to cells overexpressing human CD36 (FACS)” value is “bound equivalently”.

B2: ONA-0-v2: murine IgA antibody; heavy chain SEQ ID NO: 5, light chain SEQ ID NO: 9 (antibody)
heavy: QVQLKQSGADLVRPGASVKLSCKASGYTFTDYYINWVKQRPGQGLEWIARIYPGSGNTYYNEKFKGKATLTAEKSSSTAYMQLSSLTSEDSAVYFCARGIGGGFGMDYWGQGTSVTVSSESARNPTIYPLTLPPVLCSDPVIIGCLIHDYFPFGTMNVTWGKSGKDITTVNFPPALASGGRYTMSSQLTLPAVECPEGESVKCSVQHDSNPVQELDVNCSPTPPPPITIPSCQPSLSLQRPALEDLLLGSDASITCTLNGLRNPEGAAFTWEPSTGKDAVQKKAAQNSCGCYSVSSVLPGCAERWNSGASFKCTVTHPESGTLTGTIAKVTVNTFPPQVHLLPPPSEELALNELLSLTCLVRAFNPKEVLVRWLHGNEELSPESYLVFEPLKEPGEGATTYLVTSVLRVSAETWKQGDQYSCMVGHEALPMNFTQKTIDRLSGKPTNVSVSVIMSEGDGICY
light: NIVMTQSPKSMSMSVGERVTLTCKASENVVTYVSWYQQKPEQSPKLLIYGASNRYTGVPDRFTGSGSATDFTLTISSVQAEDLADYHCGQGYSYPYTFGGGTKLEIKRADAAPTVSIFPPSSEQLTSGGASVVCFLNNFYPKDINVKWKIDGSERQNGVLNSWTDQDSKDSTYSMSSTLTLTKDEYERHNSYTCEATHKTSTSPIVKSFNRNEC
modifications: ONA-0-v1 heavy chain; ONA-0-v2 light chain
On to B2, for which the “binding to human CD36 in ELISA” value in test [4] is on record as “did not interact”. For the same molecule, the “binding to mouse CD36 in ELISA” value in test [5] is reported as “did not interact”.
